{"source": "paper PMC2217334", "about": "(The Journal of General Physiology, 2003)", "biological_target": "human cardiac Na+ channel alpha subunit (SCN5A, hH1) (Homo sapiens, UniProt Q14524)", "sequence (Q14524 whole entry)": "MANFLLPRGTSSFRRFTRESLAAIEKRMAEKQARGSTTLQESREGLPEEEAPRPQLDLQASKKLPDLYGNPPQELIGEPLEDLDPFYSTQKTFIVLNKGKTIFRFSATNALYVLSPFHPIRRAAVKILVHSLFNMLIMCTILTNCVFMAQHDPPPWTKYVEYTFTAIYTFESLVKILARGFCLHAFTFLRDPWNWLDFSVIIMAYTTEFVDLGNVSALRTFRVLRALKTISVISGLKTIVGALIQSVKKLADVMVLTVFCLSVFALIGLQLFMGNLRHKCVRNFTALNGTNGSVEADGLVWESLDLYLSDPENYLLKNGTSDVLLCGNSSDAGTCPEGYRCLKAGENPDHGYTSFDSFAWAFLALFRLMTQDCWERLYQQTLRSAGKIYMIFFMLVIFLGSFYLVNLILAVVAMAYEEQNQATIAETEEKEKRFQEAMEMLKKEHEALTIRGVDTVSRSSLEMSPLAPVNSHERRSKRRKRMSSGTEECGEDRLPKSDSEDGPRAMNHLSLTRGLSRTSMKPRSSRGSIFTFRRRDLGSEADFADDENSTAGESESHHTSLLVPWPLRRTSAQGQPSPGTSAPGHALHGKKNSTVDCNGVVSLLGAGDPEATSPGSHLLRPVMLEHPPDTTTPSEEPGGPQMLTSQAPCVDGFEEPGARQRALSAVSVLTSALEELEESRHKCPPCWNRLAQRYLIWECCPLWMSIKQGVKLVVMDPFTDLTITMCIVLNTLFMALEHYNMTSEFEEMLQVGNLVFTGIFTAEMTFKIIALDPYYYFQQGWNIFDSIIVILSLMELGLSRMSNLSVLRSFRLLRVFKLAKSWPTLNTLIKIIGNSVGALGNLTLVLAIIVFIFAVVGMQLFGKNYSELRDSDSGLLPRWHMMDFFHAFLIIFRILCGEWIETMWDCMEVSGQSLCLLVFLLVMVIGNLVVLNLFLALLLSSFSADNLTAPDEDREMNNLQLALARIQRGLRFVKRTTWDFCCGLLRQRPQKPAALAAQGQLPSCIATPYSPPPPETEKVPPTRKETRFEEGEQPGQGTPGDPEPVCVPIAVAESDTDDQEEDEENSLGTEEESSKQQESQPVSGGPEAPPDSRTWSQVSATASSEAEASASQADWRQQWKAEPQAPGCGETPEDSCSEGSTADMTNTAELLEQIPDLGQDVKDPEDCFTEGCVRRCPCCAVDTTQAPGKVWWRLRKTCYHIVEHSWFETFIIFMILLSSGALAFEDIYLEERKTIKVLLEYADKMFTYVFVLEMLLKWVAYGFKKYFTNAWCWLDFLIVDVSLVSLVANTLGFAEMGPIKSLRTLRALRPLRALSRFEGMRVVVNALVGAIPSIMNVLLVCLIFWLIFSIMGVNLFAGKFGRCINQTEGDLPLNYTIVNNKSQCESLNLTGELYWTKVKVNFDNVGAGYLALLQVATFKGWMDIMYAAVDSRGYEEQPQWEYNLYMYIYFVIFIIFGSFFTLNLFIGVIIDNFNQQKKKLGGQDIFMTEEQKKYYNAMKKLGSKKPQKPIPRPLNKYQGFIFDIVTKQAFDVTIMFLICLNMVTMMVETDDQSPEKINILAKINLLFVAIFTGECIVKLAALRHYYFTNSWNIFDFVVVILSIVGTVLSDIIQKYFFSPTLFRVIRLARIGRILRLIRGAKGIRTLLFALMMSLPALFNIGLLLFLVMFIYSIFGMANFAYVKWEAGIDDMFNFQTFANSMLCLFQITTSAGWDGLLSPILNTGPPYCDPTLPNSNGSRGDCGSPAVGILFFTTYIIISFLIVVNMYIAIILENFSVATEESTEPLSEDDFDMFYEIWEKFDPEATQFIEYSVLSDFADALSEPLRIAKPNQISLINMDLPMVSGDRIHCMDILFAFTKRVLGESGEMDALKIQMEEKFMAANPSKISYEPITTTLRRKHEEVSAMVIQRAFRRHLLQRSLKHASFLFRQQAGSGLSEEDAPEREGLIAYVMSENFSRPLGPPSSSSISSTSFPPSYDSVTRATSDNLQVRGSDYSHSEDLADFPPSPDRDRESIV", "sequence (Q07699 19-218 partner)": "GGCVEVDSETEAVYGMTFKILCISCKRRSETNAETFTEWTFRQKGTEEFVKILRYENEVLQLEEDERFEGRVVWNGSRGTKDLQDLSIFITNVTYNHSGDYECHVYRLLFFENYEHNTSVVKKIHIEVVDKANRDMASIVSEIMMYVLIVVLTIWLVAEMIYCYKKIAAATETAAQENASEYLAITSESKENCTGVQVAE", "assay": "whole-cell patch clamp, use-dependent block at […] external", "assay_type": "cell-based", "details": "read-out: % use-dependent block at 10 μM", "data": [{"compound": "O=C(NCC1CCCCN1)c1cc(OCC(F)(F)F)ccc1OCC(F)(F)F", "note": "(stereo not shown) [flecainide]", "values": [{"measurement": "inhibition at 10 µM", "result": "67.3 ± 3.5", "unit": "%"}]}]}
